Values joined by “and” are separate entries in the source; they are usually repeats but may differ in a detail not shown here. Equal entries are not always repeated. Toxic doses and inconclusive results are not listed.
System: P388 leukemia ip, CD2F1 mice, survival T/C
Assay: NCI In Vivo Anticancer Drug Screen. Data for tumor model P388 Leukemia (intraperitoneal) in CD2F1 (CDF1) mice
Conditions: endpoint: median survival time, higher = longer survival
How it was run: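 Mice carrying the transplanted tumor received test compound or vehicle. Survival was recorded in each group, and the value is the treated-group measurement divided by that of the vehicle-treated control group.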

[1] = dose: 50.0 mg/kg/injection, schedule: Q01DX009 (ip), vehicle: Klucel (hydroxypropylcellulose) (HPC)
[2] = dose: 100.0 mg/kg/injection, schedule: Q01DX009 (ip), vehicle: Klucel (hydroxypropylcellulose) (HPC)
[3] = dose: 200.0 mg/kg/injection, schedule: Q01DX009 (ip), vehicle: Klucel (hydroxypropylcellulose) (HPC)

With `CC[C@@]1(O)C[C@H](OC2CC(N(C)C)C(OC3CC(O)C(OC4CCC(=O)C(C)O4)C(C)O3)C(C)O2)c2c(cc3c(c2O)C(=O)c2c(O)cccc2C3=O)[C@H]1C(=O)OC` (some centres undefined) the T/C (dose: 0.5 mg/kg/injection, schedule: Q03HX008 (ip), vehicle: saline) was 120 % of control, the T/C (dose: 1.0 mg/kg/injection, schedule: Q01DX005 (iv), vehicle: saline) was 108 % of control and the T/C (dose: 1.0 mg/kg/injection, schedule: Q01DX009 (oral), vehicle: saline) was 98 % of control. The T/C (dose: 1.0 mg/kg/injection, schedule: Q01DX009 (sc), vehicle: saline) was 115 % of control, the T/C (dose: 1.0 mg/kg/injection, schedule: Q03HX024 (ip), vehicle: saline) was 167 % of control and the T/C (dose: 1.0 mg/kg/injection, schedule: Q04DX003 (ip), vehicle: saline) was 103 % of control. For the same molecule, the T/C (dose: 1.94 mg/kg/injection, schedule: Q04DX003 (ip), vehicle: clinical formulation) was 96 % of control, the T/C (dose: 2.0 mg/kg/injection, schedule: Q01DX001 (iv), vehicle: saline) was 105 % of control and the T/C (dose: 2.0 mg/kg/injection, schedule: Q01DX005 (ip), vehicle: saline) was 167 % of control. For the same molecule, the T/C (dose: 2.0 mg/kg/injection, schedule: Q01DX005 (iv), vehicle: saline) was 120 % of control, the T/C (dose: 2.0 mg/kg/injection, schedule: Q01DX009 (ip), vehicle: saline) was 168 % of control and the T/C (dose: 2.0 mg/kg/injection, schedule: Q01DX009 (oral), vehicle: saline) was 115 % of control. For the same molecule, the T/C (dose: 2.0 mg/kg/injection, schedule: Q04DX003 (ip), vehicle: clinical formulation) was 117 % of control, the T/C (dose: 2.0 mg/kg/injection, schedule: Q04DX003 (ip), vehicle: saline) was 116 % of control and 120 % of control and the T/C (dose: 2.5 mg/kg/injection, schedule: Q01DX009 (ip), vehicle: saline) was 180 % of control. For the same molecule, the T/C (dose: 2.59 mg/kg/injection, schedule: Q04DX002 (ip), vehicle: saline) was 114 % of control, the T/C (dose: 4.0 mg/kg/injection, schedule: Q01DX001 (iv), vehicle: saline) was 116 % of control and the T/C (dose: 4.0 mg/kg/injection, schedule: Q01DX005 (ip), vehicle: saline) was 189 % of control. The T/C (dose: 4.0 mg/kg/injection, schedule: Q01DX005 (iv), vehicle: saline) was 162 % of control, the T/C (dose: 4.0 mg/kg/injection, schedule: Q01DX009 (ip), vehicle: saline) was 99 % of control and the T/C (dose: 4.0 mg/kg/injection, schedule: Q01DX009 (sc), vehicle: saline) was 153 % of control. For the same molecule, the T/C (dose: 4.0 mg/kg/injection, schedule: Q03HX008 (ip), vehicle: saline) was 173 % of control, the T/C (dose: 4.0 mg/kg/injection, schedule: Q04DX003 (ip), vehicle: Klucel (hydroxypropylcellulose) (HPC)) was 122 % of control and the T/C (dose: 4.32 mg/kg/injection, schedule: Q04DX002 (ip), vehicle: saline) was 151 % of control. For the same molecule, the T/C (dose: 5.4 mg/kg/injection, schedule: Q04DX003 (ip), vehicle: clinical formulation) was 113 % of control, the T/C (dose: 5.4 mg/kg/injection, schedule: Q04DX003 (ip), vehicle: saline) was 159 % of control and the T/C (dose: 6.7 mg/kg/injection, schedule: Q04DX003 (ip), vehicle: water) was 154 % of control. The T/C (dose: 7.2 mg/kg/injection, schedule: Q04DX002 (ip), vehicle: saline) was 161 % of control, the T/C (dose: 7.2 mg/kg/injection, schedule: Q04DX003 (ip), vehicle: saline) was 175 % of control and the T/C (dose: 8.0 mg/kg/injection, schedule: Q01DX001 (oral), vehicle: saline) was 110 % of control. The T/C (dose: 8.0 mg/kg/injection, schedule: Q01DX009 (oral), vehicle: saline) was 153 % of control, the T/C (dose: 8.0 mg/kg/injection, schedule: Q01DX009 (sc), vehicle: saline) was 95 % of control and the T/C (dose: 8.0 mg/kg/injection, schedule: Q04DX003 (ip), vehicle: clinical formulation) was 183 % of control. The T/C (dose: 8.0 mg/kg/injection, schedule: Q04DX003 (ip), vehicle: saline) was 172 % of control and 176 % of control, the T/C (dose: 9.0 mg/kg/injection, schedule: Q04DX003 (ip), vehicle: clinical formulation) was 114 % of control and the T/C (dose: 9.0 mg/kg/injection, schedule: Q04DX003 (ip), vehicle: saline) was 198 % of control. The T/C (dose: 10.0 mg/kg/injection, schedule: Q04DX003 (ip), vehicle: water) was 170 % of control, the T/C (dose: 12.0 mg/kg/injection, schedule: Q04DX002 (ip), vehicle: saline) was 166 % of control and the T/C (dose: 15.0 mg/kg/injection, schedule: Q04DX003 (ip), vehicle: saline) was 95 % of control. For the same molecule, the T/C (dose: 15.0 mg/kg/injection, schedule: Q04DX003 (ip), vehicle: water) was 187 % of control, the T/C (dose: 16.0 mg/kg/injection, schedule: Q01DX001 (ip), vehicle: saline) was 153 % of control and the T/C (dose: 16.0 mg/kg/injection, schedule: Q01DX001 (oral), vehicle: saline) was 116 % of control. For the same molecule, the T/C (dose: 16.0 mg/kg/injection, schedule: Q04DX003 (ip), vehicle: Klucel (hydroxypropylcellulose) (HPC)) was 154 % of control, the T/C (dose: 16.0 mg/kg/injection, schedule: Q04DX003 (ip), vehicle: saline) was 117 % of control and the T/C (dose: 32.0 mg/kg/injection, schedule: Q01DX001 (ip), vehicle: saline) was 180 % of control. For the same molecule, the T/C (dose: 32.0 mg/kg/injection, schedule: Q01DX001 (iv), vehicle: saline) was 159 % of control.
For `O=C(Oc1ccc[nH]c1=O)C1CCC1`, the T/C (dose: 50.0 mg/kg/injection, schedule: Q01DX005 (ip), vehicle: Klucel (hydroxypropylcellulose) (HPC)) was 102 % of control and 92 % of control, the T/C (dose: 100.0 mg/kg/injection, schedule: Q01DX005 (ip), vehicle: Klucel (hydroxypropylcellulose) (HPC)) was 102 % of control and 90 % of control and the T/C (dose: 200.0 mg/kg/injection, schedule: Q01DX005 (ip), vehicle: Klucel (hydroxypropylcellulose) (HPC)) was 100 % of control and 91 % of control. The T/C (dose: 400.0 mg/kg/injection, schedule: Q01DX005 (ip), vehicle: Klucel (hydroxypropylcellulose) (HPC)) was 100 % of control and 103 % of control.
With `COc1ccc(CNCC#N)c(OC)c1` the T/C (dose: 50.0 mg/kg/injection, schedule: Q01DX005 (ip), vehicle: saline with Tween-80) was 97 % of control and the T/C (dose: 100.0 mg/kg/injection, schedule: Q01DX005 (ip), vehicle: saline with Tween-80) was 100 % of control.
With `CCCCC(=O)Nc1ncc([N+](=O)[O-])s1` the T/C (dose: 25.0 mg/kg/injection, schedule: Q01DX009 (ip), vehicle: Klucel (hydroxypropylcellulose) (HPC)) was 110 % of control, the T/C [1] was 102 % of control and 104 % of control and 116 % of control and the T/C [2] was 101 % of control and 103 % of control and 113 % of control. For the same molecule, the T/C [3] was 105 % of control and 111 % of control and 123 % of control.
For `COc1ccc(CCCc2cc3c(cc2OC)OCO3)cc1`, the T/C (dose: 60.0 mg/kg/injection, schedule: Q01DX005 (ip), vehicle: Klucel (hydroxypropylcellulose) (HPC)) was 100 % of control, the T/C (dose: 120.0 mg/kg/injection, schedule: Q01DX005 (ip), vehicle: Klucel (hydroxypropylcellulose) (HPC)) was 100 % of control and the T/C (dose: 240.0 mg/kg/injection, schedule: Q01DX005 (ip), vehicle: Klucel (hydroxypropylcellulose) (HPC)) was 97 % of control.
With `CCC(CCC(C)C1CCC2C3CC=C4CC(OP(=[Se])(c5ccccc5)c5ccccc5)CCC4(C)C3CCC12C)C(C)C` (centres undefined) the T/C (dose: 13.75 mg/kg/injection, schedule: Q01DX001 (ip), vehicle: Klucel (hydroxypropylcellulose) (HPC)) was 102 % of control, the T/C (dose: 27.5 mg/kg/injection, schedule: Q01DX001 (ip), vehicle: Klucel (hydroxypropylcellulose) (HPC)) was 106 % of control and the T/C (dose: 55.0 mg/kg/injection, schedule: Q01DX001 (ip), vehicle: Klucel (hydroxypropylcellulose) (HPC)) was 104 % of control.
With `O=P(c1cccs1)(c1cccs1)c1cccs1` the T/C [1] was 96 % of control, the T/C [2] was 92 % of control and the T/C [3] was 101 % of control.
For `C(=C\c1cc2cc(C3=NCCN3)ccc2o1)/c1ccc(C2=NCCN2)cc1`, the T/C (dose: 100.0 mg/kg/injection, schedule: Q04DX003 (ip), vehicle: saline) was 153 % of control and 157 % of control.
`CC(C)(C)OC1COCCO1` (centres undefined) was tested, and the T/C (dose: 60.0 mg/kg/injection, schedule: Q01DX005 (ip), vehicle: saline with Tween-80) was 102 % of control, the T/C (dose: 120.0 mg/kg/injection, schedule: Q01DX005 (ip), vehicle: saline with Tween-80) was 99 % of control and the T/C (dose: 240.0 mg/kg/injection, schedule: Q01DX005 (ip), vehicle: saline with Tween-80) was 93 % of control.
`N#CC1C(=O)NC(=O)C(C#N)C1C(Cl)(Cl)Cl` (centres undefined) was tested, and the T/C [1] was 100 % of control, the T/C [2] was 93 % of control and the T/C [3] was 102 % of control.
For `Cc1ccc(N=CN(C)C=Nc2ccc(C)cc2C)c(C)c1`, the T/C (dose: 50.0 mg/kg/injection, schedule: Q01DX009 (ip), vehicle: suspension in saline) was 104 % of control, the T/C (dose: 100.0 mg/kg/injection, schedule: Q01DX009 (ip), vehicle: suspension in saline) was 113 % of control and the T/C (dose: 200.0 mg/kg/injection, schedule: Q01DX009 (ip), vehicle: suspension in saline) was 107 % of control.
With `C=C1CC2(CC3CC(C2C)C3(C)C)OC1=O` (centres undefined) the T/C (dose: 25.0 mg/kg/injection, schedule: Q04DX002 (ip), vehicle: saline) was 102 % of control, the T/C (dose: 50.0 mg/kg/injection, schedule: Q04DX002 (ip), vehicle: saline) was 100 % of control and the T/C (dose: 100.0 mg/kg/injection, schedule: Q04DX002 (ip), vehicle: saline) was 100 % of control and 90 % of control. The T/C (dose: 400.0 mg/kg/injection, schedule: Q04DX002 (ip), vehicle: saline) was 100 % of control.

Reference: PubChem BioAssay AID330 (DTP/NCI, 2004)
